From US6339064B1, “Benzylglycosylamides as inhibitors of smooth muscle cell proliferation” (American Home Products Corporation, priority 1998, dated 2002)

Test system: Porcine Smooth Muscle Cell
Assay: Effects of compounds on cell proliferation using 3H thymidine incorporation (porcine smooth muscle cell antiproliferation)
Assay type: cell-based
Details: at 50 μM, control (100%) = maximally stimulated cells
Protocol: Effects of Compounds on Cell Proliferation Using ^3H Thymidine Incorporation
Human and porcine smooth muscle cells were tested in early passage (generally passage 3-7) at sub-confluent conditions. Cultures were grown in 16 mm (24 well) multi-well culture dishes in medium 199 supplemented with 10% fetal bovine serum and 2% antibiotic/antimycotic. At sub-confluence, the cells were placed in a defined serum free medium (AIM-V; Gibco) for 24-48 h prior to initiating the experimental protocol.
Compounds were added to each well at 50 fold dilution (20 μL/well) and the plates were incubated for 24-36 h at 37° C. in 5% CO2. Compounds were initially dissolved in 50% ethanol and serially diluted into media. Compounds were routinely evaluated at concentrations from 1 to 100 μM. As a control, grade II porcine intestinal mucosal herapin (sodium salt) was routinely evaluated in all cell preparations at concentrations from 0.1 to 100 μg/mL.
At the completion of the test procedure, plates were placed on ice, washed three times with ice cold phosphate buffered saline (PBS) and incubated in ice cold 10% trichloroacetic acid (TCA) got 30 min to remove acid soluble proteins. Solution was transferred to scintillation vials containing 0.4 N HCl (500 μL/vial to neutralize NaOH) and each well was rinsed two times with water (500 μL) for a total volume of 2 mL/vial.
Data was obtained, in triplicate, for both control and experimental samples. Control (100%) data was obtained from maximally stimulated cells, as the result of growth factor or serum stimulation. Experimental data was obtained from cells maximally stimulated with growth factor or serum and treated with compound. Data are expressed as an IC50 in Table I below.

SMILES	Porcine Smooth Muscle Cell Antiproliferation, % at 50 μM [% at 50]
O=C(NC1OC(CO)C(OC2OC3COC(c4ccccc4)OC3C(O)C2O)C(O)C1O)c1ccc(Cl)c([N+](=O)[O-])c1 [Example 5, (R)-4-chloro-3-nitro-N-[4-O-[4,6-O-(phenylmethylene)-α-D-glucopyranosyl]-β-D-glucopyranosyl]-benzamide]	37
O=C(N[C@@H]1O[C@H](CO)[C@@H](O[C@H]2O[C@@H]3COC(c4ccccc4)O[C@H]3[C@H](O)[C@H]2O)[C@H](O)[C@H]1O)c1ccc(Cl)cc1 (stereo partly drawn) [Example 11, N-(4′,6′-O-Benzylidene-β-D-maltosyl)-4-chloro-benzamide]	15

Same assay, conditions: serum/growth factor stimulated cells, 24-36 h incubation

SMILES	IC50 [µM]
CC(=O)OC[C@H]1O[C@@H](NC(=O)c2ccc(Cl)c([N+](=O)[O-])c2)[C@H](OC(C)=O)[C@@H](OC(C)=O)[C@@H]1O[C@H]1O[C@H](COC(C)=O)[C@@H](OC(C)=O)[C@H](OC(C)=O)[C@H]1OC(C)=O [Example 1, N-(Hepta-O-acetyl-1-deoxy-β-D-maltosyl)-4-chloro-3-nitro-benzamide]	21.2
CC(=O)Nc1cc(C(=O)NC2OC(CO)C(OC3OC4COC(c5ccccc5)OC4C(O)C3O)C(O)C2O)ccc1Cl [Example 4, (R)-3-(Acetylamino)-4-chloro-N-[4-O-[4,6-O-(phenylmethylene)-α-D-glucopyranosyl]-β-D-glucopyranosyl]-benzamide]	3.2
CC(=O)Nc1cc(C(=O)NC2OC(COC(=O)c3ccccc3)C(OC3OC4COC(c5ccccc5)OC4C(O)C3O)C(O)C2O)ccc1Cl [Example 6, (R)-3-(Acetylamino)-N-[6-O-benzoyl-4-O-[4,6-O-(phenylmethylene)-α-D-glucopyranosyl]-β-D-glucopyranosyl]-4-chloro-benzamide]	0.45
O=C(NC1OC(COC(=O)c2ccccc2)C(OC2OC3COC(c4ccccc4)OC3C(O)C2O)C(O)C1O)c1ccc(Cl)c([N+](=O)[O-])c1 [Example 7, (R)-4-chloro-N-[(6-O-benzoyl-4′,6′-O-benzylidene)-β-D-maltosyl]-3-nitro-benzamide]	0.55
CC(=O)O[C@@H]1[C@@H](OC(C)=O)[C@H](NC(=O)c2ccc(Cl)c([N+](=O)[O-])c2)O[C@H](COC(=O)c2ccccc2)[C@H]1O[C@H]1O[C@@H]2COC(c3ccccc3)O[C@H]2[C@H](OC(C)=O)[C@H]1OC(C)=O (stereo partly drawn) [Example 8, 4-Chloro-N-[(2,2′,3,3′-tetra-O-acetyl-6-benzoyl-4′,6′-O benzylidene)-β-D-maltosyl]-3-nitro-benzamide]	0.26
CC(=O)Nc1cc(C(=O)NC2OC(COC(=O)c3ccccc3)C(OC3OC4COC(c5ccccc5)OC4C(O)C3OC(C)=O)C(O)C2OC(C)=O)ccc1Cl [Example 9, (R)-N-[2-O-Acetyl-4-O-[2-O-acetyl-4,6-O-(phenylmethylene)-α-D-glucopyranosyl]-6-O-benzoyl-β-D-glucopyranosyl]-3-(acetylamino)-4-chlorobenzamide]	1.25
CC(=O)OC[C@H]1O[C@@H](NC(=O)c2ccc(Cl)cc2)[C@H](OC(C)=O)[C@@H](OC(C)=O)[C@@H]1O[C@H]1O[C@H](COC(C)=O)[C@@H](OC(C)=O)[C@H](OC(C)=O)[C@H]1OC(C)=O [Example 10, N-(Hepta-O-acetyl-β-D-maltosyl)-4-chloro-benzamide]	36.6
O=C(NC1OC(COC(=O)c2ccccc2)C(OC2OC3COC(c4ccccc4)OC3C(O)C2O)C(O)C1O)c1ccc(Cl)cc1 [Example 12, N-(6-O-benzoyl-4′,6′-O-benzylidene-β-D-maltosyl)-4-chloro-benzamide]	49.2
CC(=O)OC[C@H]1O[C@@H](NC(=O)c2ccc(OCCCC#N)c(Cl)c2)[C@H](OC(C)=O)[C@@H](OC(C)=O)[C@@H]1O[C@H]1O[C@H](COC(C)=O)[C@@H](OC(C)=O)[C@H](OC(C)=O)[C@H]1OC(C)=O [Example 13]	32.8
CC(=O)OC[C@H]1O[C@H](NC(=O)c2ccc(OCCCC#N)c(Cl)c2)[C@H](OC(C)=O)[C@@H](OC(C)=O)[C@@H]1O[C@H]1O[C@H](COC(C)=O)[C@@H](OC(C)=O)[C@H](OC(C)=O)[C@H]1OC(C)=O [Example 14]	51.3
